Test results taken from patent US11440939B2, “Anticancer peptides” (IDP DISCOVERY PHARMA, S.L., priority 2017, dated 2022).
Numbered stars: 1 amine (or outer) side, 2 acyl side, 3 side chain; on linkers, the order of the positions; unused ones are H or OH. Bridge positions count the residues as written; N and C are the ends. Square brackets hold non-standard residues; d marks the D form. Peptide text beside a SMILES is read from it. ξ: configuration not given here. ξαMeNle(6-ylidene) = CC(CCCC=[*:3])(N[*:1])C(=O)[*:2]; X1 = CC(CCCCCCC=[*:3])(N[*:1])C(=O)[*:2]; R8 = C=CCCCCCC[C@@](C)(N)C(=O)O; S5 = C=CCCC[C@](C)(N)C(=O)O

How the values were obtained:
Type in all cases: cell-based
NCI-H510A = conditions: 72 h
Procedure: NCI-510A, epithelial (small cell lung cancer, SCLC), ATCC-HBT-124; and Hepatocytes (normal liver), from a donor was provided by Foundation DTI-Donation & Transplantation Institute from surgical wastes and from organs not suitable for transplantation
(§1) Cell line MCF-7 was cultured in incubator under CO2 (6%) at 37° C. in DMEM high glucose (Dulbecco's Modified Eagle Solution, Gibco-BRL 31966-21) medium with 10% fetal bovine serum inactivated (FBS) (Gibco-BRL 10106-169). Cell lines HL-60, NCI-H524, NCI-H526, NCI-H69, NCI-H82, NCI-H187 and H5B were cultured in an incubator at 37° C. in RPMI-1640 (Sigma R8758) medium with 10% of fetal bovine serum inactivated (FBS) and 2 mM glutamine (Sigma G7513). Cell line NCI-H510A was cultured in incubator in F12K medium with 10% of fetal bovine serum inactivated (FBS). Cell line GBM-18 and GBM-27 were cultured in incubator under CO2 (6%) at 37° C. in complete medium (Neurobasal+B27+Glutamax+Growth factors).
(§2) During the amplification step and the assays, adherent cells were rinsed with DPBS (Dulbecco's Phosphate Buffered Saline, Sigma D1283) three times and afterward treated for 5 minutes with trypsin ([…]) (Gibco-BRL, 15400054) in solution of DPBS at 37° C., and, once detached, transferred in the culturing medium. No-adherent cells were centrifuged and transferred in the culturing medium. Cells were counted in a Neubauer chamber after labelling with Tripan-Blue.
(§3) MCF-7, NCI-H187, NCI-H69, NCI-H526 and H5B cells were seeded at a density of 5000 cells/well; NCI-H524 and NCI-H82 were seeded at a density of 2500 cells/well; HL-60 and NCI-H510A at 10000 cells/well in 100 μl of medium in 96 well plates. After 24 h, the compounds to be tested were added to calculate the dose/response curve at the starting concentration of 100 μM with serial dilutions (1:1). Controls were the untreated cells. Each experiment was performed in triplicate.
(§4) Cells were incubated during 72 h in incubator under CO2 atmosphere at 37° C. Cell viability was measured by means of MTT (3-(4,5-dimethylthiazol-2-yl)-2,5-diphenyltetrazolium bromide) assay, Alamar Blue® (Biosource DAL1100) and Hexosaminidase activity test, consecutively, following manufacturer instructions.
(§5) MTT: 1. Stock solution of MTT (475989 Calbiochem) was 5 mg/ml in PBS 1×. As negative control (experiment noise) 3 wells were treated with 20 μl/well of a solution of SDS 10% in H2O. The same control was used for Alamar Blue/Hexosaminidase. 10 μl/well of MTT solution were added and the plate was incubated for 3-4 hr. The medium was discarded and 100 μl of extracting buffer (PBS 1×, 15% SDS, 50% […] N,N-Dimethylformamide, pH 4,7) were added to each well. Plates were incubated for 16 h at room temperature under orbital shaking. Absorbance at 570 nm was finally measured.
(§6) Alamar Blue: 10 μl Alamar Blue solution was added to each well and the plates were incubated for […] in the incubator. Fluorescence ratio at 535/590 (excitation/emission) was measured in Cytofluor (Millipore) fluorimeter. Blank control was determined by lysis of untreated cells with con 2% of Triton X100, right before adding Alamar Blue solution.
(§7) Hexosaminidase activity test: after Alamar Blue lecture, medium was discarded and plates were rinsed once with PBS. 60 μl hexosaminidase substrate (p-nitrophenol-N-acetyl-beta-D-glucosamide 7.5 mM [Sigma N-9376], sodium citrate 0.1 M, pH 5.0, 0.25% Triton X-100) was added to each well and the plates were incubated at 37° C. for 2-5 h, according to the cell type (hexosaminidase activity changes according to the cell type). […] Blank control was the same as described before.
(§8) Data analysis was performed calculating the percentage of cell viability normalized vs. the values of negative control, which was considered equal to 100%. The dose/response curve was fitted through the sigmoidal equation dose-response (variable slope) and the EC50 values were calculated as follow: Y=Bottom+(Top−Bottom)/(1+10^{[(Log EC50−X)*HillSlope]},

cancer cell lines = test: Inhibition of cancer cell proliferation, general statements
Procedure: as §3, §4, §8

NCI-H82 = conditions: 72 h
Procedure: NCI-H82, epithelial (small cell lung cancer, SCLC), ATCC-CRL-5811;
as §1, §2, §3, §4, §5, §6, §7, §8

NCI-H187 = conditions: 72 h
Procedure: NCI-H187, epithelial (small cell lung cancer, SCLC), ATCC-CRL-5804;
as §1, §2, §3, §4, §5, §6, §7, §8

EC50 (NCI-H510A) [µM]	EC50 (NCI-H82) [µM]	EC50 (NCI-H187) [µM]	Structure (SMILES)	inhibition of cancer cell proliferation (in words) (cancer cell lines)
~7.5	~7.5	~7.5	CC(C)C[C@@H]1NC(=O)[C@H](C)NC(=O)[C@H](C)NC(=O)[C@H](Cc2ccccc2)NC(=O)[C@](C)(NC(=O)[C@H](CC(C)C)NC(=O)[C@H](CC(N)=O)NC(=O)[C@@H](NC(=O)[C@H](CC(C)C)NC(=O)[C@H](CCCCN)NC(=O)[C@@H](NC(=O)[C@@H](N)CCCNC(=N)N)C(C)C)C(C)C)CCCCCCC=CCCC[C@@](C)(C(=O)N[C@H](C(=O)N2CCC[C@H]2C(N)=O)C(C)C)NC(=O)[C@H](CCC(=O)O)NC(=O)[C@H](CCCNC(=N)N)NC1=O [IDP-H14-A09] (H-RVKLVNL[R8]FAALRE[S5]VP-NH2; staple 8-15; N-terminus assumed)	active
~7.5	~7.5	~7.5	CC(C)C[C@H](NC(=O)[C@H](CCCCN)NC(=O)[C@@H](NC(=O)[C@@H](N)CCCNC(=N)N)C(C)C)C(=O)N[C@H](C(=O)N[C@@H](CC(N)=O)C(=O)N[C@@H](CC(C)C)C(=O)NC1(C)CCCCCCC=CCCCC(C)(C(=O)N[C@H](C(=O)N2CCC[C@H]2C(N)=O)C(C)C)NC(=O)[C@H](C)NC(=O)[C@H](CCCNC(=N)N)NC(=O)[C@H](CC(C)C)NC(=O)[C@H]([C@@H](C)O)NC(=O)[C@H](C)NC(=O)[C@H](Cc2ccccc2)NC1=O)C(C)C (stereo partly drawn) [IDP-H14-A12] (H-RVKLVNL[X1]FATLRA[ξαMeNle(6-ylidene)]VP-NH2; staple 8-15; N-terminus and C-terminus assumed)	active
~7.5	~7.5	~7.5	CC(C)C[C@H](NC(=O)[C@H](CCCCN)NC(=O)[C@@H](NC(=O)[C@H](CCCNC(=N)N)NC(=O)[C@H](CCCNC(=N)N)NC(=O)[C@H](CCCNC(=N)N)NC(=O)[C@H](CCCNC(=N)N)NC(=O)[C@H](CCCNC(=N)N)NC(=O)[C@H](CCCNC(=N)N)NC(=O)[C@H](CCCNC(=N)N)NC(=O)[C@@H](N)CCCNC(=N)N)C(C)C)C(=O)N[C@H](C(=O)N[C@@H](CC(N)=O)C(=O)N[C@@H](CC(C)C)C(=O)NC1(C)CCCCCCC=CCCCC(C)(C(=O)N[C@H](C(=O)N2CCC[C@H]2C(N)=O)C(C)C)NC(=O)[C@H](CCC(=O)O)NC(=O)[C@H](CCCNC(=N)N)NC(=O)[C@H](CC(C)C)NC(=O)[C@H]([C@@H](C)O)NC(=O)[C@H](C)NC(=O)[C@H](Cc2ccccc2)NC1=O)C(C)C (stereo partly drawn) [IDP-H14-CPP] (H-RRRRRRRRVKLVNL[X1]FATLRE[ξαMeNle(6-ylidene)]VP-NH2; staple 15-22; N-terminus and C-terminus assumed)	
~7.5	~7.5	~7.5	CC(C)C[C@H](NC(=O)[C@H](CCCCN)NC(=O)[C@@H](NC(=O)[C@@H](N)CCCNC(=N)N)C(C)C)C(=O)N[C@H](C(=O)N[C@@H](CC(N)=O)C(=O)N[C@@H](CC(C)C)C(=O)NC1(C)CCCCCCC=CCCCC(C)(C(=O)N[C@H](C(=O)N2CCC[C@H]2C(N)=O)C(C)C)NC(=O)[C@H](Cc2ccccc2)NC(=O)[C@H](CCCNC(=N)N)NC(=O)[C@H](CC(C)C)NC(=O)[C@H]([C@@H](C)O)NC(=O)[C@H](C)NC(=O)[C@H](Cc2ccccc2)NC1=O)C(C)C (stereo partly drawn) [IDP-H14-F12] (H-RVKLVNL[X1]FATLRF[ξαMeNle(6-ylidene)]VP-NH2; staple 8-15; N-terminus and C-terminus assumed)	active
~7.5	~7.5	~7.5	CC(C)C[C@H](NC(=O)[C@H](CCCCN)NC(=O)[C@@H](NC(=O)[C@@H](N)CCCNC(=N)N)C(C)C)C(=O)N[C@H](C(=O)N[C@@H](CC(N)=O)C(=O)N[C@@H](CC(C)C)C(=O)NC1(C)CCCCCCC=CCCCC(C)(C(=O)N[C@H](C(=O)N[C@@H](Cc2ccccc2)C(N)=O)C(C)C)NC(=O)[C@H](CCC(=O)O)NC(=O)[C@H](CCCNC(=N)N)NC(=O)[C@H](CC(C)C)NC(=O)[C@H]([C@@H](C)O)NC(=O)[C@H](C)NC(=O)[C@H](Cc2ccccc2)NC1=O)C(C)C (stereo partly drawn) [IDP-H14-F14] (H-RVKLVNL[X1]FATLRE[ξαMeNle(6-ylidene)]VF-NH2; staple 8-15; N-terminus and C-terminus assumed)	active
~7.5	~7.5	~7.5	CC(C)C[C@@H]1NC(=O)[C@H](C)NC(=O)[C@H](CCC(N)=O)NC(=O)[C@H](Cc2ccccc2)NC(=O)C(C)(NC(=O)[C@H](CC(C)C)NC(=O)[C@H](CC(N)=O)NC(=O)[C@@H](NC(=O)[C@H](CC(C)C)NC(=O)[C@H](CCCCN)NC(=O)[C@@H](NC(=O)[C@@H](N)CCCNC(=N)N)C(C)C)C(C)C)CCCCCCC=CCCCC(C)(C(=O)N[C@H](C(=O)N2CCC[C@H]2C(N)=O)C(C)C)NC(=O)[C@H](CCC(N)=O)NC(=O)[C@H](CCCNC(=N)N)NC1=O (stereo partly drawn) [IDP-H14-H2-01] (H-RVKLVNL[X1]FQALRQ[ξαMeNle(6-ylidene)]VP-NH2; staple 8-15; N-terminus and C-terminus assumed)	active
		~12.5	CC(C)C[C@H](NC(=O)[C@H](CCCCN)NC(=O)[C@@H](NC(=O)[C@@H](N)CCCNC(=N)N)C(C)C)C(=O)N[C@H](C(=O)N[C@@H](CC(N)=O)C(=O)N[C@@H](CC(C)C)C(=O)N[C@]1(C)CCCCCCC=CCCC[C@@](C)(C(=O)N[C@H](C(=O)N2CCC[C@H]2C(N)=O)C(C)C)NC(=O)[C@H](CCC(=O)O)NC(=O)[C@H](CCCNC(=N)N)NC(=O)[C@H](CC(C)C)NC(=O)[C@H]([C@@H](C)O)NC(=O)[C@H](CCC(N)=O)NC(=O)[C@H](Cc2ccccc2)NC1=O)C(C)C [IDP-H14-Q9] (H-RVKLVNL[R8]FQTLRE[S5]VP-NH2; staple 8-15; N-terminus assumed)	active
	~7	~10	CC(C)C[C@H](NC(=O)[C@H](CC(N)=O)NC(=O)[C@@H](NC(=O)[C@H](CC(C)C)NC(=O)[C@H](CCCCN)NC(=O)[C@@H](NC(=O)[C@H](CCCNC(=N)N)NC(=O)[C@H](CCCNC(=N)N)NC(=O)[C@H](CCCNC(=N)N)NC(=O)[C@H](CCCNC(=N)N)NC(=O)[C@H](CCCNC(=N)N)NC(=O)[C@H](CCCNC(=N)N)NC(=O)[C@H](CCCNC(=N)N)NC(=O)[C@@H](N)CCCNC(=N)N)C(C)C)C(C)C)C(=O)NCC(=O)N[C@@H](Cc1ccccc1)C(=O)N[C@@H](C)C(=O)N[C@H](C(=O)N[C@@H](CC(C)C)C(=O)N[C@@H](CCCNC(=N)N)C(=O)N[C@@H](CCC(=O)O)C(=O)N[C@@H](Cc1c[nH]cn1)C(=O)N[C@H](C(=O)N1CCC[C@H]1C(N)=O)C(C)C)[C@@H](C)O [LH02] (H-RRRRRRRRVKLVNLGFATLREHVP-NH2; N-terminus and C-terminus assumed)	
